These results are taken from ChEMBL document CHEMBL5149995, “An Alkynylpyrimidine-Based Covalent Inhibitor That Targets a Unique Cysteine in NF-κB-Inducing Kinase” (J Med Chem, 2021).

Molecules are shown by their SMILES. Values after ≈ are worked out from the molar mass of the structure shown. Active and inactive are the calls of the source. The rule behind the calls is not given here.

The target of series [1] is Mitogen-activated protein kinase kinase kinase 14 (Homo sapiens, UniProt Q99558, S549D). The series can be described thus: Inhibition of His6-tagged human NIK (330 to 680 residues) S549D mutant expressed in baculovirus-infected Sf9 cells incubated for 30 mins in presence of ATP by ADP-GloTM assay. (In general: ADP-Glo first removes unused ATP, then detects ADP through luciferase.)
Chain of Mitogen-activated protein kinase kinase kinase 14 (Q99558 whole entry S549D, the tested form may be a part): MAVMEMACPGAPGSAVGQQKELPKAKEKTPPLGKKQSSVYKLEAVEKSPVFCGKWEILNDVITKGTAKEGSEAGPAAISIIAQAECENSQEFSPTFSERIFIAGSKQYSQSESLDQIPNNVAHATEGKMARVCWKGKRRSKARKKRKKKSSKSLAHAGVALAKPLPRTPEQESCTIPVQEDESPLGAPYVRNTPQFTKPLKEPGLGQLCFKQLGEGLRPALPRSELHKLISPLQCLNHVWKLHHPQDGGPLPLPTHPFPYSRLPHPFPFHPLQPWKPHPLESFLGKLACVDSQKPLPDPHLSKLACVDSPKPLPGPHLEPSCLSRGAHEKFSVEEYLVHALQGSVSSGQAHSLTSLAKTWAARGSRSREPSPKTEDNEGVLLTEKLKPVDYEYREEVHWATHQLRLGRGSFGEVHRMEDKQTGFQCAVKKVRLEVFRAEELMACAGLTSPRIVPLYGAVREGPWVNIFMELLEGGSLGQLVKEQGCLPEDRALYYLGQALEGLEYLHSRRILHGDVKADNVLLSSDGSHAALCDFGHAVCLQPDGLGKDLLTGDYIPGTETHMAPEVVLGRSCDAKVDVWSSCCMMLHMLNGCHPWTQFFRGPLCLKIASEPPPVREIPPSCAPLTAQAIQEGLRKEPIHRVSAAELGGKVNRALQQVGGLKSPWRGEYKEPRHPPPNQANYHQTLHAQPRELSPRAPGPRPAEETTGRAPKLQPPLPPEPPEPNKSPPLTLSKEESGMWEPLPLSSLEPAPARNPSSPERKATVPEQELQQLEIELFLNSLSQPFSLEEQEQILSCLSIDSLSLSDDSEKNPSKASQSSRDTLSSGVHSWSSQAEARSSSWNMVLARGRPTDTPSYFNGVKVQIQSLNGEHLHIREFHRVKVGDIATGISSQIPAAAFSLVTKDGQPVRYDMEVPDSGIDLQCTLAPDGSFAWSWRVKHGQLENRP

Another series concerns Z-138. The series can be described thus: Antiproliferative activity against NIK-activated human Z138 cells assessed as inhibition of cell growth incubated for 72 hrs by XTT assay. In kind it is functional. On the technique in general: Formazan colour is commonly taken as a measure of viable cells.
The next series relates to Maver1. The series can be described thus: Antiproliferative activity against NIK-activated human MAVER-1 cells assessed as inhibition of cell growth incubated for 72 hrs by XTT assay. It is filed as functional.
The test system of a further series is MCF7. The series can be described thus: Antiproliferative activity against NIK-independent human MCF7 cells assessed as inhibition of cell growth incubated for 72 hrs by XTT assay. In kind it is functional.
The next series has as its system JIM3 (Homo sapiens). Nature of the series: Antiproliferative activity against NIK-independent human JIM3 cells assessed as inhibition of cell growth incubated for 72 hrs by XTT assay. The following applies: JIM3, 72 h.
Series [2] addresses Mitogen-activated protein kinase kinase kinase 14 (Homo sapiens) (UniProt Q99558). The series can be described thus: Covalent binding affinity to NIK (unknown origin) assessed as protein-compound adduct formation by measuring increase in 330Da mass at 100 uM incubated for 6 hrs by mass spectrometry.
For series [3] the target is unchanged. Nature of the series: Covalent binding affinity to NIK (unknown origin) assessed as labeling at Cys444 residue using Ala438-Arg451 peptide incubated for 18 hrs measured after tryptic digestion by MS/MS fragmentation spectral analysis.
Series [4] deals with Mitogen-activated protein kinase kinase kinase 9 (Homo sapiens) (UniProt P80192). Nature of the series: Inhibition of MLK1 (unknown origin) at 1 uM relative to control.
Chain of Mitogen-activated protein kinase kinase kinase 9 (Homo sapiens) (P80192 whole entry, looked up): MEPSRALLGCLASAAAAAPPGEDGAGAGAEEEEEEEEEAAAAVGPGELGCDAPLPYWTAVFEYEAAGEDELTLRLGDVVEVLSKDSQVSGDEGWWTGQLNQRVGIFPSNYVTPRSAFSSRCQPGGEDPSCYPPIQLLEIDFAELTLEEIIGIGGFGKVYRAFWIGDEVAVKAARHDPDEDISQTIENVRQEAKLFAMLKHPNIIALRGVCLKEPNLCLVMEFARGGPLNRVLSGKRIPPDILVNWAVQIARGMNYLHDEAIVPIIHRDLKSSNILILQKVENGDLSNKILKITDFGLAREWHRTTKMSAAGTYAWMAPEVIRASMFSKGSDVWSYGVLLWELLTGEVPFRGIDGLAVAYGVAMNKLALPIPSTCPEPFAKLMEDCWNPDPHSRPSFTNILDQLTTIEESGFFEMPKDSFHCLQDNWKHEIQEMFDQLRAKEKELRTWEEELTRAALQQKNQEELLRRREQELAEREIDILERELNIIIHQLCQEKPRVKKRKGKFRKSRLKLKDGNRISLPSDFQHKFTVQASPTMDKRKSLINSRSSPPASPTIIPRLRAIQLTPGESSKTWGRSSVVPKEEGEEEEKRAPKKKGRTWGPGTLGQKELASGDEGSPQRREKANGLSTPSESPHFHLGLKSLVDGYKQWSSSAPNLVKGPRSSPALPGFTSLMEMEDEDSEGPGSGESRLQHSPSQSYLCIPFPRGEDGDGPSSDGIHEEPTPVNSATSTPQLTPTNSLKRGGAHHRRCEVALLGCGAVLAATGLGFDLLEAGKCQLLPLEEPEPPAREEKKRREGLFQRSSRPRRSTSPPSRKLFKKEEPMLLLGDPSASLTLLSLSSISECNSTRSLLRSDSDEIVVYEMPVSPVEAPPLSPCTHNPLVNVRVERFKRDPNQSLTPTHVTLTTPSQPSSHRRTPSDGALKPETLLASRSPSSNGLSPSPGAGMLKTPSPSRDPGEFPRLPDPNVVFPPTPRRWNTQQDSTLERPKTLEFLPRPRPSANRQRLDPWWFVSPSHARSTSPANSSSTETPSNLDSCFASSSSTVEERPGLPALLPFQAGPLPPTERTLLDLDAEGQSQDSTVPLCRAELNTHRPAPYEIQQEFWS
The target in series [5] is Receptor tyrosine-protein kinase erbB-4 (Homo sapiens) (UniProt Q15303). The series can be described thus: Inhibition of HER4 (unknown origin) at 1 uM relative to control.
Series [6] deals with T1, Serine/threonine-protein kinase Sgk1 (Homo sapiens) (UniProt O00141).
T1 sequence (whole entry): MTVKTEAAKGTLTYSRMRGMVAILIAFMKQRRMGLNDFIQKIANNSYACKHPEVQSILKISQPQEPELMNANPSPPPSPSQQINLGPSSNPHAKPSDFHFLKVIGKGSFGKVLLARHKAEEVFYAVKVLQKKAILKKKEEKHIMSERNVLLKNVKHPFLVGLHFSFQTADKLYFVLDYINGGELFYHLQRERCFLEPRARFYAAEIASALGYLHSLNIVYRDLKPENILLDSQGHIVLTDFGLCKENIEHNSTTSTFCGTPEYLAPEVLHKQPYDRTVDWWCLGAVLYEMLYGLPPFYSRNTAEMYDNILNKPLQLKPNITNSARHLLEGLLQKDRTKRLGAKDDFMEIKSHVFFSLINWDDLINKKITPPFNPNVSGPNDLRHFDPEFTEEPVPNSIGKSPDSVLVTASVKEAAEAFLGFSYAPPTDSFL
Nature of the series: Inhibition of SGK1 (unknown origin) at 1 uM relative to control.

The target of series [7] is T2, Mitogen-activated protein kinase kinase kinase 7 (Homo sapiens) (UniProt O43318).
T2 sequence (whole entry): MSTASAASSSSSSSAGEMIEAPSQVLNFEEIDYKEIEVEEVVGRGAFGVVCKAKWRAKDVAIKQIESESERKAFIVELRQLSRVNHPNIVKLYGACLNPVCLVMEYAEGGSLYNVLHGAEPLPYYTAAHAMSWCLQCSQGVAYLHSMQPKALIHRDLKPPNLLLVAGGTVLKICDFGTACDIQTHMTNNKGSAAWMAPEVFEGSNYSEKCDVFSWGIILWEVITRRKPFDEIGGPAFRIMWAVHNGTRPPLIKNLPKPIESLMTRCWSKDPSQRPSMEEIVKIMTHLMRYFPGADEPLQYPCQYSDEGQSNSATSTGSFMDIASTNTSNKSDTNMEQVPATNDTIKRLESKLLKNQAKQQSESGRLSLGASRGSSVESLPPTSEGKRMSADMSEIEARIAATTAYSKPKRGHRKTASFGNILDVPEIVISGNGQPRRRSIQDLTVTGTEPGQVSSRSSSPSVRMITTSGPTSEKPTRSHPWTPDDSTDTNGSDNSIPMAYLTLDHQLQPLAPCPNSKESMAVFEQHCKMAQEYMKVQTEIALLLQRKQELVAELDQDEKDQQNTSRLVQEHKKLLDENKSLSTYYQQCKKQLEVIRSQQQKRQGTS
Nature of the series: Inhibition of TAK1 (unknown origin) at 1 uM relative to control.

Series [8] deals with Platelet-derived growth factor receptor alpha (Homo sapiens) (UniProt P16234). The series can be described thus: Inhibition of PDGFRA (unknown origin) at 1 uM relative to control.
Series [9] concerns the target Tyrosine-protein kinase BTK (Homo sapiens) (UniProt Q06187). The series can be described thus: Inhibition of BTK (unknown origin) at 1 uM relative to control.
The target of series [10] is Receptor-interacting serine/threonine-protein kinase 2 (Homo sapiens) (UniProt O43353). Nature of the series: Inhibition of RIPK2 (unknown origin) at 1 uM relative to control.
Chain of Receptor-interacting serine/threonine-protein kinase 2 (Homo sapiens) (O43353 whole entry): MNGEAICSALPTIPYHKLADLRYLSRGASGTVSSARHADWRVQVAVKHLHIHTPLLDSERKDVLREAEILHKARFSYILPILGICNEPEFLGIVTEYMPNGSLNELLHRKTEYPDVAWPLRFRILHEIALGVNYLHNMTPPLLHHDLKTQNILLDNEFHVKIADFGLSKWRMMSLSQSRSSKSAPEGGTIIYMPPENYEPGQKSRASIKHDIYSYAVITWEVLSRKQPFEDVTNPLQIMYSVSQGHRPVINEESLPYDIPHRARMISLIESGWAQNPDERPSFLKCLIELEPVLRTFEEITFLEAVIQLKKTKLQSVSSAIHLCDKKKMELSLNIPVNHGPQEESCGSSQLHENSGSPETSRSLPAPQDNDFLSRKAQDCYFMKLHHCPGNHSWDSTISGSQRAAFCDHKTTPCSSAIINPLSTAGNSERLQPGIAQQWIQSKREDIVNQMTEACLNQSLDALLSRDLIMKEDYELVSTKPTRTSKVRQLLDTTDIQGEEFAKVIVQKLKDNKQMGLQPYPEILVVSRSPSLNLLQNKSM
The target of series [11] is Aurora kinase B (Homo sapiens) (UniProt Q96GD4). Nature of the series: Inhibition of Aurora B (unknown origin) at 1 uM relative to control.
Chain of Aurora kinase B (Homo sapiens) (Q96GD4 whole entry): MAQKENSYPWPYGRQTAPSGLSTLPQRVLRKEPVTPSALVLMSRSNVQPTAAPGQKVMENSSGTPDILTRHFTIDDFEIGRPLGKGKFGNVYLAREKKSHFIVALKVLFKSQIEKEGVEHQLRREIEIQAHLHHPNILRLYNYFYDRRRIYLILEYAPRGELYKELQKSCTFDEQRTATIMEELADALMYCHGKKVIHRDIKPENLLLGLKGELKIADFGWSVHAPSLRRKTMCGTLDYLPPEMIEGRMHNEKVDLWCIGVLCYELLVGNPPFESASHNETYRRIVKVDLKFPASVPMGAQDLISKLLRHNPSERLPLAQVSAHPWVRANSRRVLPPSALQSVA
A further series is filed under the species Homo sapiens. The series can be described thus: Inhibition of VEGFR (unknown origin) at 1 uM relative to control.
The target in series [12] is Serine/threonine-protein kinase SIK2 (Homo sapiens) (UniProt Q9H0K1). The series can be described thus: Inhibition of SIK2 (unknown origin) at 1 uM relative to control.
Chain of Serine/threonine-protein kinase SIK2 (Homo sapiens) (Q9H0K1 whole entry, looked up): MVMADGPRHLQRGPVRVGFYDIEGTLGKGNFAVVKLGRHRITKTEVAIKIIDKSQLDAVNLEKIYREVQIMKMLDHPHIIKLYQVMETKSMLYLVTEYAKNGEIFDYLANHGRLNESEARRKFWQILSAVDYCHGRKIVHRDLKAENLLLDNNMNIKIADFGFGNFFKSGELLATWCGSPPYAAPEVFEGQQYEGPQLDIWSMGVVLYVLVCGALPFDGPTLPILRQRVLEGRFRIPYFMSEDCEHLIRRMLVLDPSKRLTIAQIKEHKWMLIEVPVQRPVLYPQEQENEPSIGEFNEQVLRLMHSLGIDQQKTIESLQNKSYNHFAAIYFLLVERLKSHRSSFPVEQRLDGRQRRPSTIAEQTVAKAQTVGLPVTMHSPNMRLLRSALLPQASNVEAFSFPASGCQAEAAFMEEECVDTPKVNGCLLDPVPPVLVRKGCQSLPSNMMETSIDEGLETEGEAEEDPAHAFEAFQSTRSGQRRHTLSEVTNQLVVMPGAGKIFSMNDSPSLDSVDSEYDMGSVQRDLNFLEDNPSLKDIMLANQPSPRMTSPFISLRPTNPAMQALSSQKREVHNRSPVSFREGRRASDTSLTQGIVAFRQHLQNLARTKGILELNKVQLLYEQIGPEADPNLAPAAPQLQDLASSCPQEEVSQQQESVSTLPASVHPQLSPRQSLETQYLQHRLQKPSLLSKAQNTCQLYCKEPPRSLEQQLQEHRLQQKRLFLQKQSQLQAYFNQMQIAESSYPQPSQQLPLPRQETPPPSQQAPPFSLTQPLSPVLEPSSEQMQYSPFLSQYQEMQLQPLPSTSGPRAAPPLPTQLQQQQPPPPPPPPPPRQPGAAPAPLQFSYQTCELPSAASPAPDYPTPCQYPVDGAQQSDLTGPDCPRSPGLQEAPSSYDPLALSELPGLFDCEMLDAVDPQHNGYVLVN
The nature of series [13]: Lipophilicity, log D of the compound at pH 7.4. It is filed as physicochemical. As to conditions: buffer.
The nature of series [14]: Solubility of the compound. It is filed as physicochemical.
The nature of series [15]: Apparent permeability across apical to basolateral side in human Caco-2 cells. It is filed as ADME, cell-based. For orientation: Caco-2 monolayers are a common model of the intestinal barrier.
Series [16] can be described thus: Apparent permeability across basolateral to apical side in human Caco-2 cells. It is filed as ADME, cell-based.
Series [17] can be described thus: Intrinsic clearance in rat hepatocytes measured per million of cells. In kind it is ADME, cell-based, Hepatocyte. The following applies: read-out: CLH.
A short description of series [18]: Intrinsic clearance in human hepatocytes measured per million of cells. It is filed as ADME, cell-based, Hepatocyte. As to conditions: read-out: CLH.

Chain of Mitogen-activated protein kinase kinase kinase 14 (Homo sapiens) (Q99558 whole entry, looked up, the tested form may be a part): as the sequence (Q99558 whole entry S549D, the tested form may be a part) above, with D549S counted along it
Chain of Tyrosine-protein kinase BTK (Homo sapiens) (Q06187 whole entry): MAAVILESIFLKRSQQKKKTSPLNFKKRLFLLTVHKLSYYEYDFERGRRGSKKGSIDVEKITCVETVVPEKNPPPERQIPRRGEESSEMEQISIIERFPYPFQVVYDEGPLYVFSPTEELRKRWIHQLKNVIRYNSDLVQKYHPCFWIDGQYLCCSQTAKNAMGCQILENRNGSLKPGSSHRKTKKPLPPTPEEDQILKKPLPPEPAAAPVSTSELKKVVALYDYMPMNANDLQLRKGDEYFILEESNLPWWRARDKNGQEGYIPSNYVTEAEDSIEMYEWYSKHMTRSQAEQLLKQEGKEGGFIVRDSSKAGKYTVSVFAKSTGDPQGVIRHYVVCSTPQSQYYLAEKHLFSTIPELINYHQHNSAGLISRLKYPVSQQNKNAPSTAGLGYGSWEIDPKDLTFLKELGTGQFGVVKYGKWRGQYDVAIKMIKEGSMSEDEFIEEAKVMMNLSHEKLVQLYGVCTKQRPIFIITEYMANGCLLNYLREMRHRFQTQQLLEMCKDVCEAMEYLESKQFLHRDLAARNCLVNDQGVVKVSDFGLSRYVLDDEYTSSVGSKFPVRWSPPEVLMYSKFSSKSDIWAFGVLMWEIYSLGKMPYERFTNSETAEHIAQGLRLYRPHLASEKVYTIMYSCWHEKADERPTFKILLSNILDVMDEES

Consider `C=Cc1ccnc(C#Cc2ccc3ncn(-c4ccnc(N)n4)c3c2)n1`, for which the 50% inhibitory concentration (IC50) in series [1] is 1.58 µM. The GI50 in the series on Z-138 was 1 µM; in the series with Maver1 it was 1.26 µM; in the series on MCF7 it was 0.631 µM; in the series with JIM3 (Homo sapiens), 1.58 µM.

With `COc1cc(C(N)=O)nc(-c2cccc(C#C[C@]3(O)CCN(C)C3=O)c2)c1`, the GI50 with Z-138 is 20 µM; with Maver1, 3.98 µM; in the series on MCF7 it was > 31.6 µM; in the series on JIM3 (Homo sapiens), > 31.6 µM.

Regarding `C#Cc1cncc(C#Cc2ccc3ncn(-c4ccnc(N)n4)c3c2)n1`, the IC50 in series [1] is 6.31 µM.

Regarding `C=Cc1ccc(C#Cc2ccc3ncn(-c4ccnc(N)n4)c3c2)cn1`, the IC50 in [1] is 79.4 µM.

For the molecule `CC(=O)NCCCCc1ccc2ncn(-c3ccnc(N)n3)c2c1`, the IC50 in series [1] was 398 µM.

Take `C#Cc1ccc2ncn(-c3ccnc(N)n3)c2c1`: the half-inhibitory concentration (IC50) in [1] is 0.251 µM.

In the case of `C=Cc1cc(C#Cc2ccc3ncn(-c4ccnc(N)n4)c3c2)ccn1`, in series [1], the concentration for half-maximal inhibition (IC50) was 20 µM.

Regarding `C=Cc1nccc(C#Cc2ccc3ncn(-c4ccnc(N)n4)c3c2)n1`, the half-inhibitory concentration (IC50) in series [1] is 39.8 µM.

For the molecule `C=CC(=O)NCCCCc1ccc2ncn(-c3ccnc(N)n3)c2c1`, the concentration for half-maximal inhibition (IC50) in [1] is 501 µM.

On to `C#Cc1ccnc(C#Cc2ccc3ncn(-c4ccnc(N)n4)c3c2)c1`, for which the IC50 in series [1] was 0.316 µM. In addition, the concentration for 50% growth inhibition (GI50) in the series with Z-138 is 7.94 µM; in the series with Maver1 it was 10 µM; in the series on MCF7 it was > 10 µM; in the series on JIM3 (Homo sapiens), > 7.94 µM.

As to `C=Cc1ccnc(C#Cc2ccc3ncn(-c4ccnc(N)n4)c3c2)c1`, the IC50 in series [1] is 1.58 µM. In addition, the concentration for 50% growth inhibition (GI50) with Z-138 is 0.398 µM; with Maver1, 0.501 µM; in the series on MCF7 it was 1.26 µM; with JIM3 (Homo sapiens) it was 1.58 µM.

For `CC(O)(C#Cc1ccc2c(c1)N(c1nc(N)ncc1Cl)CC2)c1nccs1` (stereo not drawn), the concentration for half-maximal inhibition (IC50) in series [1] is 0.00398 µM.

`Cc1ccnc(C#Cc2ccc3ncn(-c4ccnc(N)n4)c3c2)n1`: the half-maximal inhibitory concentration (IC50) in series [1] is 1.58 µM.

On to `C#Cc1cc(C#Cc2ccc3ncn(-c4ccnc(N)n4)c3c2)ncn1`, for which the IC50 in series [1] was 50.1 µM.

`C#Cc1ncc(C#Cc2ccc3ncn(-c4ccnc(N)n4)c3c2)cn1`: the half-inhibitory concentration (IC50) in [1] was 79.4 µM.

As for `C#Cc1cncc(C#Cc2ccc3ncn(-c4ccnc(N)n4)c3c2)c1`, the IC50 in [1] is 63.1 µM.

In the case of `C#Cc1nccc(C#Cc2ccc3ncn(-c4ccnc(N)n4)c3c2)n1`, in series [1], the concentration for half-maximal inhibition (IC50) is 39.8 µM.

Turning to `C#Cc1cc(C#Cc2ccc3ncn(-c4ccnc(N)n4)c3c2)ccn1`, the 50% inhibitory concentration (IC50) in series [1] is 31.6 µM.

For the molecule `C#Cc1cccc(C#Cc2ccc3ncn(-c4ccnc(N)n4)c3c2)n1`, the half-maximal inhibitory concentration (IC50) in series [1] was 3.16 µM.

For the molecule `CC(=O)NCCCc1ccc2ncn(-c3ccnc(N)n3)c2c1`, the IC50 in [1] was > 100 µM.

As to `CCc1ccc2ncn(-c3ccnc(N)n3)c2c1`, in [1], the IC50 was 79.4 µM.

In the case of `COCCOc1cnc(N)nc1-c1c[nH]c2ccc(C#CC(C)(C)O)cc12`, in series [1], the IC50 is 0.0398 µM.

Consider `C#Cc1cnc(C#Cc2ccc3ncn(-c4ccnc(N)n4)c3c2)nc1`, for which, in series [1], the IC50 is 25.1 µM.

Regarding `C=CC(=O)NCCCc1ccc2ncn(-c3ccnc(N)n3)c2c1`, the half-maximal inhibitory concentration (IC50) in series [1] was 501 µM.

As to `C=CC(=O)NCC#Cc1ccc2ncn(-c3ccnc(N)n3)c2c1`, the IC50 in series [1] was 6.31 µM.

As for `C#Cc1ccnc(C#Cc2ccc3ncn(-c4ccnc(N)n4)c3c2)n1`, in [1], the concentration for half-maximal inhibition (IC50) is 0.2 µM. Moreover, the outcome in series [2] and in [3] was Active. For the same molecule, the inhibition in series [4], in series [5], in [6], in series [7], in series [8] and in series [9] was > 50% in each case. The inhibition (in series [10]; in [11]; in the series filed under Homo sapiens; in [12]) was > 50% throughout. Besides, the GI50 was 0.631 µM with Z-138, 0.398 µM with Maver1, 0.501 µM in the series with MCF7 and 0.501 µM in the series with JIM3 (Homo sapiens). The pH-dependent lipophilicity (logD) in series [13] was 2.8. This molecule yielded a solubility in series [14] of 3.8 µM (≈ 1.28 µg/mL). In addition, in [15], the Papp A→B stood at 0.33 ×10⁻⁶ cm/s. Further, the Papp B→A in series [16] was found to be 0.22 ×10⁻⁶ cm/s. Also, the hepatocyte CLint turned out to be 915 µL/min/1e6 cells in series [17] and 382 µL/min/1e6 cells in [18].

A word on the IC50: it is the midpoint of a concentration-inhibition curve. Broadly, the GI50 is the concentration at which growth is held to half of that of the control. Usually inhibition stands for how much of the control response was suppressed. High values mean a strong effect, low ones a weak effect. Usually logD stands for the decadic logarithm of the distribution of all forms, ionised or not, between an organic phase and buffer at a given pH. A high value points to a more lipophilic compound. Usually solubility stands for the dissolved amount per volume that the medium holds. High values mean a readily soluble substance, low ones a poorly soluble substance. For orientation: Papp A→B means the apparent permeability from the apical to the basolateral side of a cell layer. Usually Papp B→A stands for how fast a substance crosses the layer from the basolateral side.
